Experimental data taken from US20250034151A1, “WEE1 INHIBITOR, PREPARATION THEREFOR, AND USE THEREOF” (JIANGSU TASLY DIYI PHARMACEUTICAL CO., LTD., priority 2022, published 2025).

Experiments:
[1] = Liver microsomes in vitro stability (mouse); assay type: in vitro ADME; conditions: read-out: T1/2/min
Method: (§1) 1. Preparation of Working Solution:
(§2) Microsomes were taken out from the −80° C. refrigerator, rapidly melted in a 37° C. water bath and placed on ice until ready to use. The test article was diluted with DMSO to prepare a 10 mM stock solution, and then diluted with acetonitrile to a 0.5 mM secondary stock solution. […] NADPH was diluted with Buffer C to a working solution of 6 mM for the starter solution. An acetonitrile solution containing an internal standard was prepared as the precipitant, and Verapamil-HCl was chosen as the internal standard at a concentration of 4 ng/ml.
(§3) 2. Experimental Procedure:
(§4) A round-bottom well plate was taken, noted as the reaction plate, and the prepared working solution for each compound was dispensed into the well plate according to the number of replicates and time points (0 h samples were also added to the reaction plate), 30 μL/well; the plate was incubated at 37° C. for 10 min. A separate plate with pointed bottom wells, noted as a precipitation plate, was added with 135 μL precipitant per well; 0 h samples were transferred to the plate after 10 min incubation and 15 μL of starter solution was added; the plate was placed on ice before centrifugation.
(§5) The diluted starter solution was added in sufficient quantity to the dispensing plate to facilitate the multichannel pipette aspiration operation.
(§6) The reaction was carried out on a warm incubation shaker and 15 μL of starter solution/sample is added to the plate using a multichannel pipette. The reaction was mixed with a slight shake to initiate the reaction, which was accurately timed and recorded using a timer. In general, samples with shorter reaction times are initiated late and vice versa early, allowing sufficient time for multiple plate manipulation to terminate the reaction. For example, as for the four experiments of 5, 15, 30, and 60 min, the 60 min experiment was started first, and the 5 min experiment was started later, so as to leave sufficient time for the 5 min group.
(§7) After the reaction time had elapsed, all the solution in the plate was aspirated using the multichannel pipette and added to the precipitation plate to terminate the reaction at that point in time. After all reactions had been terminated, the plates were shaken for ten minutes on a plate shaker at 600 rpm to precipitate the protein. The plate was centrifuged at 4° C. for 15 minutes at maximum rpm. 80 μL of supernatant was taken, 320 μL of pure water was added and mixed for LC-MS analysis.

Wee1 protein = molecular target: T1, Wee1 protein (Homo sapiens, UniProt P30291); assay: Binding of compound to Wee1 protein and Tracer 178 by TR-FRET (Wee1 kinase inhibitory activity); conditions: 15 nM WEE1, 50 nM Tracer 178, read-out: IC50 (inhibitory activity against Wee1 kinase)
T1 construct: purchased Thermo Fisher PR7373A

[2] = Liver microsomes in vitro stability (human); assay type: in vitro ADME; conditions: read-out: T1/2/min (H)
Method: as §1, §2, §3, §4, §5, §6, §7

CYP2C8 = molecular target: T2, CYP2C8 (Homo sapiens, UniProt P10632); assay: in vitro; conditions: CYP2C8 enzyme, pH 7.4, probe DBOMF (0.001 mM)
T2 sequence (P10632 1-490): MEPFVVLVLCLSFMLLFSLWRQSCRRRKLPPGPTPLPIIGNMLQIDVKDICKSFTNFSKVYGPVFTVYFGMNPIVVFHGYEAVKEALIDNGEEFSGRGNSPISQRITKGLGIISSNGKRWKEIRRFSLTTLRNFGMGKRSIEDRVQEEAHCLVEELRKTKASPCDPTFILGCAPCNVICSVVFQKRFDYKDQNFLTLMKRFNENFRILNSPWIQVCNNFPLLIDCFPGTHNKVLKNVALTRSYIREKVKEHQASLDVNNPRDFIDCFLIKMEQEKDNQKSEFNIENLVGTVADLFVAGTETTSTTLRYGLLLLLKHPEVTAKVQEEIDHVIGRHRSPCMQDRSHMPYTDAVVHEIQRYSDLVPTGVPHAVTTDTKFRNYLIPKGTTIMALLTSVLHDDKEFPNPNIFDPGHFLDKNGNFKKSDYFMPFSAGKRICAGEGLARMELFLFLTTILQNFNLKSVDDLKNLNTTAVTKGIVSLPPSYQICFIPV

CYP2B6 = molecular target: T3, CYP2B6 (Homo sapiens, UniProt P20813); assay: CYP450 isoform enzymatic inhibition, 2B6; assay type: in vitro ADME; conditions: CYP2B6 enzyme, pH 7.4, read-out: CYP inhibiton/% 2B6
T3 sequence (P20813 1-491): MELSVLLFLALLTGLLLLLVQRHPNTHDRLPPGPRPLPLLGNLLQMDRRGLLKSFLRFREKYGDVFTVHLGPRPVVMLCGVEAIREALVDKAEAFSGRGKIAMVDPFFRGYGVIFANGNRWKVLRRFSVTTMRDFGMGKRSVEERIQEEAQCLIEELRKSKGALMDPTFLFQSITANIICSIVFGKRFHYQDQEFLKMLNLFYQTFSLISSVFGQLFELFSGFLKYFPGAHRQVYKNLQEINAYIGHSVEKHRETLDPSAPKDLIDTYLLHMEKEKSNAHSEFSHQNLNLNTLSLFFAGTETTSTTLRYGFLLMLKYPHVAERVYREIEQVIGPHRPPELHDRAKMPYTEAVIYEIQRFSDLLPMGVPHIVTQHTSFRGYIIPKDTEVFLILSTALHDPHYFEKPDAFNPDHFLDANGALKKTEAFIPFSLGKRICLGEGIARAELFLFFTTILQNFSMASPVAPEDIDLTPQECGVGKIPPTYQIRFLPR

CYP2C19 = CYP2C19 (Homo sapiens, UniProt P33261); assay: in vitro; conditions: CYP2C19 enzyme, pH 7.4, probe EOMCC (0.01 mM)
CYP2D6 = CYP2D6 (Homo sapiens, UniProt P10635); assay: in vitro; conditions: CYP2D6 enzyme, pH 7.4, probe EOMCC (0.01 mM)
CYP3A4 = CYP3A4 (Homo sapiens, UniProt P08684); assay: in vitro; conditions: CYP3A4 enzyme, pH 7.4, probe BOMCC (0.01 mM)
CYP3A4, sequence (P08684 whole entry, species assumed): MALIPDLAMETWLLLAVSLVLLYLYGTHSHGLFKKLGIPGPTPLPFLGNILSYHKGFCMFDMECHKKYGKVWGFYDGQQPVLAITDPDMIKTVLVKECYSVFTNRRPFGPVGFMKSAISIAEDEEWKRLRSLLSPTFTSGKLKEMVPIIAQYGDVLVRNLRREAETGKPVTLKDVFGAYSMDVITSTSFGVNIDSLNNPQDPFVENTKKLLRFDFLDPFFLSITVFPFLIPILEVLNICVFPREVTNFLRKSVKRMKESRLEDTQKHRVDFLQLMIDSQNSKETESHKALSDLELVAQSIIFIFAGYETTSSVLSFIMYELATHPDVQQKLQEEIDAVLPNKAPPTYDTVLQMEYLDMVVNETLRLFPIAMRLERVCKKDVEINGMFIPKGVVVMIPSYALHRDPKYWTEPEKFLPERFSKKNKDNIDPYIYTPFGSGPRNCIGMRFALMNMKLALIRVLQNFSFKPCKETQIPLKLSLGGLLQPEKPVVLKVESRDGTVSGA

CYP2C19, sequence (P33261 whole entry, species assumed): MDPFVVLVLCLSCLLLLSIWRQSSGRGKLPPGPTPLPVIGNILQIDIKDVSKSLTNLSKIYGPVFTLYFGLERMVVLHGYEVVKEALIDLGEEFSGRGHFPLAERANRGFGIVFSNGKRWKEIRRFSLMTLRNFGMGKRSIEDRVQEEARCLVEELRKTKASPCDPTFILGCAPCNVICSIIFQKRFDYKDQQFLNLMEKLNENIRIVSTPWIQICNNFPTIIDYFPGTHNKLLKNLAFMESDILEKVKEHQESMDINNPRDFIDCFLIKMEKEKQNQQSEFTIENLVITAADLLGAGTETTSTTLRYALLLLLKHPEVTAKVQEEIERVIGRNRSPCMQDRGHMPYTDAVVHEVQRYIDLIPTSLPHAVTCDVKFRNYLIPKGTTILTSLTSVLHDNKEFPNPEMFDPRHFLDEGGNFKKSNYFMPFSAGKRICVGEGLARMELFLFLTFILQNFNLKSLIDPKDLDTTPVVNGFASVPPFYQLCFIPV
CYP2D6, sequence (P10635 whole entry, species assumed): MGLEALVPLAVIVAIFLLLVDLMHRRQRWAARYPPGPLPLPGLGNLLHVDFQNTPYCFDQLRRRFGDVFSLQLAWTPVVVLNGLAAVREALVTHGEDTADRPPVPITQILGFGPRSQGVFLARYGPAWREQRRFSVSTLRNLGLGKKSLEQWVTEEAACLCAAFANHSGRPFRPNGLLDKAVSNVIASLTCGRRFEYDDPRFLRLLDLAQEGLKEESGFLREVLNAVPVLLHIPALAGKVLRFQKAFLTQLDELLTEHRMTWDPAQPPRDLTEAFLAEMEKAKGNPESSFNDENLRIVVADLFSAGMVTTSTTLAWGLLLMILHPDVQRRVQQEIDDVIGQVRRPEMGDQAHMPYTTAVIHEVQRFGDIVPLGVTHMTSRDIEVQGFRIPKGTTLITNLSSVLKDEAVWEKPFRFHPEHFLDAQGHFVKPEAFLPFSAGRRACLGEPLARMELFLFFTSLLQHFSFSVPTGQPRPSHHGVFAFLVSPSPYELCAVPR
T1 sequence (P30291 whole entry): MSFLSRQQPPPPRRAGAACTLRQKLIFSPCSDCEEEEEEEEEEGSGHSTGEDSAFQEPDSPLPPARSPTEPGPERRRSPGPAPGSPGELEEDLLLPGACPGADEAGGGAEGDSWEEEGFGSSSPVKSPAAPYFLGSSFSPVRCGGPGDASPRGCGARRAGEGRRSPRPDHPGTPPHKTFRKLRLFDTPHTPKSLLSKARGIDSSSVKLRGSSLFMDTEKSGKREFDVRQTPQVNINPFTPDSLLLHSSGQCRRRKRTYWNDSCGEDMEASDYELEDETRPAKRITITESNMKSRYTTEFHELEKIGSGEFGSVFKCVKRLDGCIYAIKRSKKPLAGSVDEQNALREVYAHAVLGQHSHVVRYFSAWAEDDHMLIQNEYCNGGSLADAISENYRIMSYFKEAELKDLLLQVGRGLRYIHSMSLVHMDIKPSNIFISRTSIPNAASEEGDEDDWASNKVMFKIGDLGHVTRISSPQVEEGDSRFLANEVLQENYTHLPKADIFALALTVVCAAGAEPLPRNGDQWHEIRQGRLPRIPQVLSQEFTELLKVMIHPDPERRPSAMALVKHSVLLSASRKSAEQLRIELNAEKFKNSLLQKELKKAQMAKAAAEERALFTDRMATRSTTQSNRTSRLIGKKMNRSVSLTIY

Row | inhibition at 30 min, 1 µM (CYP2C8) [%] | inhibition at 30 min, 10 µM (CYP2C8) [%] | inhibition at 30 min, 10 µM (CYP2B6) [%] | inhibition at 30 min, 1 µM (CYP2C19) [%] | inhibition at 30 min, 10 µM (CYP2C19) [%] | inhibition at 30 min, 1 µM (CYP2D6) [%] | inhibition at 30 min, 10 µM (CYP2D6) [%] | inhibition at 30 min, 1 µM (CYP3A4) [%] | inhibition at 30 min, 10 µM (CYP3A4) [%] | SMILES | half-life at 1 µM [1] [h] | IC50 (Wee1 protein) [nM] | half-life at 1 µM [2] [h]
1 | – | – | – | – | – | – | – | – | – | C=CCn1c(=O)c2cnc(Nc3ccc(N4CC5CC(C4)N5C)cc3)nc2n1-c1cccc(C(C)(C)O)n1 [Compound 27] | 0.55 | 5 to 10 | 1.75
2 | 7.1 | 17.3 | 17.4 | 25.4 | 71.9 | 3.4 | 1.5 | -14 | -32.9 | C=CCn1c(=O)c2cnc(Nc3ccc(N4CCN(C)CC4)cc3)nc2n1-c1cccc(C(C)(C)O)n1 [AZD1775] | – | – | –
